Experimental data published in patent publication US20040254247A1, “Method and composition for treatnment of ocular hypertension and glaucoma” (priority 2001, published 2004).
Read-outs that look alike come from different tables or passages of the source.

Assays:
[1] = tested on: monkey eyes; assay: Effects on IOP in monkey eyes (applanation pneumatonometer); format: in vivo, cynomolgus monkeys; details: 15 μg/eye
Method: (§1) Nine male cynomolgus monkeys (body weights of animals ranged between 3.2 and 5.4 kg) without abnormalities in the anterior segment of the eye were used.
(§2) The left eye received an equal volume of the vehicle.
Intraocular pressure (IOP) measurements were conducted by means of an applanation pneumatonometer (Model 30 Classic™, Mentor O & O, Inc., USA) immediately before the administration (0-hour), and at 2, 4, 8, 12, 24, 28, and 32 hours after the administration.

[2] = tested on: eye of healthy volunteers; assay: Intraocular pressure lowering effect in healthy volunteers (applanation tonometer); format: in vivo, human; details: for Intraocular pressure lowering effect (difference in IOP between test eye and control eye): 12 μg/eye; for lowered the IOP by, as compared with the control eye: 12 μg
Method: The vehicle solution was ocularly administered to the contralateral eye (control eye). Intraocular pressure (IOP) was measured by means of an applanation tonometer before, and 4, 6, and 12 hours after the administration. The IOP lowering effect of the test compound was evaluated based on difference in IOP between test eye and the control eye at each time point of IOP measurement.

[3] = tested on: eye of Dutch rabbits; assay: 13-week repeated ocular administration, irritable response in cornea, conjunctiva or iris; format: in vivo
Method: The administration was performed 4 times a day with 2-hour intervals for 13 weeks. The cornea, conjunctiva and iris were observed about occurrence of irritable response before, and 4, 8, and 13 weeks after the initiation of the administration. The observation was performed within the time from 0.5 hour to 2 hours after the last administration of the day. The cornea was observed about a presence of opacity and its area in the cornea. The conjunctiva was observed about occurrence of hyperemia, redness and swelling. The iris was observed about occurrence of hyperemia, congestion, swelling and hemorrhage. The ratio of cases showing irritable response in the cornea, conjunctiva or iris was evaluated by percent in the group.

[4] = tested on: eye of white rabbits; assay: Incidence of conjunctival hyperemia after single ocular administration; details: 50 μg eye drop, once to one eye, two hours after the administration
Method: The presence of conjunctival hyperemia was examined at two hours after the administration and the ratio of cases showing conjunctival hyperemia was evaluated by percent in each group.

[5] = tested on: monkey eyes; assay: Eye irritancy scoring in monkeys (criteria based on Draize test); format: in vivo, cynomolgus monkeys; design: key to Eye irritancy (Score) Conjunctivae Chemosis: 0: No swelling; 1: Any swelling above normal (includes nictitating membrane); 2: Obvious swelling with partial eversion of the lids; 3: Swelling with lids about half closed; 4: Swelling with lids about half closed to completely closed; details: 15 μg/eye
Text: as §1, §2
Eye irritancy was scored according to the criteria presented in Table 4 at the same time points as IOP measurements. These criteria are based on those of Draize test.

[6] = tested on: monkey eyes; details: dose of 3 μg; cited from earlier work
[7] = tested on: monkey eyes; details: 50 μg per eye; cited from earlier work
[8] = tested on: healthy human eyes; details: dose of 5 μg, cited from earlier work

In the case of CC(C)OC(=O)CCC/C=C\C[C@@H]1[C@@H](CCC(=O)CCc2ccccc2)[C@H](O)C[C@@H]1O [13,14-dihydro-15-keto-17-phenyl-18,19,20-trinor-PGF2α isopropyl ester], the IOP ([1]; 0 hr (immediately before administration), right eye, Mean ± SE) is reported as 19.7 ± 0.6 mmHg, the IOP reduction ([1]; topical) is reported as “significant IOP reduction” and the “Intraocular pressure lowering effect (difference in IOP between test eye and control eye)” value ([2]; 4 hours after administration) is reported as −1.0 mmHg. The “lowered the IOP by, as compared with the control eye” value ([2]; 4 hours after the administration) was 1.0 mmHg, the “Intraocular pressure lowering effect (difference in IOP between test eye and control eye)” value ([2]; 6 hours after administration) was −0.8 mmHg and the “lowered the IOP by, as compared with the control eye” value ([2]; 6 hours after the administration) was 0.8 mmHg. The “Intraocular pressure lowering effect (difference in IOP between test eye and control eye)” value ([2]; 12 hours after administration) was −1.1 mmHg, the “lowered the IOP by, as compared with the control eye” value ([2]; 12 hours after the administration) was 1.1 mmHg and the “effect on the cornea, conjunctiva and iris” value ([3]; 30 μg/eye each 4 times a day for 13 weeks) was “no effect”. For the same compound, the “Incidence rate of ocular irritation” value ([3]; 4 weeks after initiation, 30 μg/eye 4 times/day) was 0%, the “Incidence rate of ocular irritation” value ([3]; 8 weeks after initiation, 30 μg/eye 4 times/day) was 0% and the “Incidence rate of ocular irritation” value ([3]; 13 weeks after initiation, 30 μg/eye 4 times/day) was 0%. The “Incidence rate of ocular irritation” value ([3]; Pre (before initiation of administration)) was 0%, the “Incidence Rate of Conjunctival Hyperemia” value [4] was 33% and the “Eye irritancy (Score) Conjunctivae Chemosis” value (“Eye irritancy” below) ([5]; 2 hr after administration) was 0. For the same compound, the “Eye irritancy” value ([5]; 4 hr after administration) was 0, the “Eye irritancy” value ([5]; 8 hr after administration) was 0 and the “Eye irritancy” value ([5]; 12 hr after administration) was 0. The “Eye irritancy” value ([5]; 24 hr after administration) was 0, the “Eye irritancy” value ([5]; 28 hr after administration) was 0 and the “Eye irritancy” value ([5]; 32 hr after administration) was 0. For the same compound, the “Eye irritancy” value ([5]; Before administration) was 0, the “signs or symptoms of ocular irritation” value ([5]; after topical administration) was “no signs or symptoms” and the “intraocular pressure reducing effects” value [6] was “showed intraocular pressure reducing effects”. The “intraocular pressure reducing effects” value [7] was “showed intraocular pressure reducing effects”, the “intraocular pressure reducing effects” value ([8]; healthy human eyes) was “showed intraocular pressure reducing effects” and the “side effect such as conjunctival hyperemia, ocular irritation and foreign body sensation” value ([8]; in the human) was “no side effect”.
